Data on 5 compounds can be found in patent US20200138764A1, “METHODS AND DEVICES FOR ACTIVATING ADIPOSE TISSUE” (The Procter & Gamble Company, priority 2018, published 2020).

The target in test [1] is human TRPM8. In words: TRPM8 Protocol-FLIPR Assay (intracellular Ca2+). The test is classed as cell-based. As to conditions: HEK-293 cells stably transfected with human TRPM8, Fluo-4 AM, relative to benchmark agonist WS-5. The method, then: To determine whether TRPM8 is activated, the intracellular calcium ion (Ca^2+) level was measured from transfected cells with the TRPM8 receptor sequence (SEQ ID NO: 1). HEK-293 (human embryonic kidney) cells stably transfected with human TRPM8 were grown in 15 mL growth medium (high glucose DMEM (Dulbecco's Modification of Eagle's Medium) supplemented with 10% FBS (fetal bovine serum), 100 μg/mL penicillin/streptomycin, 5 μg/mL blasticindin, and 100 μg/mL zeocin) in a 75 cm^2 flask for 3 days at 37° C. in a mammalian cell culture incubator (Forma Scientific Model 3110, Marietta, Ohio) set at 5% CO2. Cells were detached with addition of 2 mL of trypsin-EDTA buffer (GIBCO® 25200, Invitrogen, Grand Island, N.Y.) for about 2-3 min. Trypsin was inactivated by addition of 8 mL growth medium. Cells were transferred to a 50 mL tube and centrifuged at 850 rpm for 3 minutes to remove medium. After centrifugation, a pellet of cells was formed in the bottom of the tube separating them from the supernatant solution. The supernatant was discarded and the cell pellet was suspended in 1 mL of fresh growth medium to which 5 μL (12.5 μg) of Fluo-4 AM (Molecular Probes, Inc., Eugene, Oreg.) calcium indicator was added and incubated for 30 min with gentle shaking. Fluo-4 AM is a fluorescent dye used for quantifying cellular Ca^2+ concentrations in the 100 nM to 1 μM range. At the end of 30 minutes, 45 mL of assay buffer (1×HBSS (Hank's Balanced Salt Solution), 20 mM HEPES (4-(2-Hydroxyethyl)-1-piperazineethanesulfonic acid)) was added to wash cells and the resulting mixture was then centrifuged at 850 rpm for 3 minutes at 20° C. to remove excess buffer and Fluo-4 AM calcium indicator.
The pelleted cells were re-suspended in 10 mL assay buffer and 90 μL aliquots (˜50,000 cells) per well delivered to a 96-well assay plate containing 10 μL of test compounds (1 mM in assay buffer, final concentration 100 μM) or buffer control and incubated at room temperature for 30 minutes. After 30 minutes, a plate (Falcon 353219, Corning Corning N.Y.) was placed into a fluorometric imaging plate reader (FLIPR384 from Molecular Devices, Sunnyvale, Calif.) and basal fluorescence recorded (excitation wave length 488 nm and emission wave length 510 nm). Then 20 μL of 100 mM of TRPM8 agonist WS5 coolant in the assay buffer was added and fluorescence recorded. For determining the direct effect of test compounds on TRPM8, fluorescence was measured immediately after addition of each compound (TABLE 1). Additional discussion of the FLIPR method can be found in Smart et al., Characterization using FLIPR of human vanilloid VR1 receptor pharmacology, European Journal of Pharmacology 417, 51-58 (2001) and Liu et al., Development and validation of a platelet calcium flux assay using a fluorescent imaging plate reader, Analytical Biochemistry 357, 216-224 (2006).
The magnitude of the fluorescence of the active-treated cells was compared to the magnitude of the fluorescence from a benchmark agonist (WS-5), as described above. The percentage of fluorescence as a function of active dose was plotted and a sigmoidal curve was generated. Curve fitting from this dose-response curve yielded the value for TRPM8 IC50 in nM.
TRPM8 activation was determined by measuring intracellular calcium ion (Ca^2+) level from transfected cells with the TRPM8 receptor gene, as described in EXAMPLE 1, the results of which are shown in TABLE 1. IC50 values are provided in column 3 of TABLE 1, which measured the concentration of activating compound needed to reduce intracellular [Ca^2+] by 50%. […]

In test [2] the test system is Human subcutaneous pre-adipocytes. In words: Lipogenesis Assay (AdipoRed staining). It is filed as cell-based. The conditions noted are these: AdipoRed fluorescence, NI = no inhibition at concentration less than/equal to 1 mM. The method, then: Lipogenesis is the process by which acetyl-CoA is converted to fatty acid. Through lipogenesis and subsequent triglyceride synthesis, energy can be stored in the form of adipose tissue (i.e. fats). To determine what effect, if any, activating compounds (shown in TABLE 1) had on lipogenesis, the protocol listed below was used.
To determine whether the activating compounds (shown in TABLE 1) impacted the formation of white adipocytes from pre-adipocytes, a lipogenesis assay was performed. The cells utilized in the protocol were cryo-preserved Human subcutaneous pre-adipocytes superlot (Zen-Bio, Inc., Research Triangle Park, N.C., Cat # SP-F-SL). The growth media used was PM-1 (Zen-Bio, Inc., Research Triangle Park, N.C., cat # PM-1) plus 5 ng/mL Epidermal Growth Factor (EGF). The PM-1+5 ng/mL EGF was prepared by adding 12.5 uL of 200 ug/mL EGF stock to 500 mL PM-1. The differentiation media used was DM-2 (Zen-Bio, Inc., Research Triangle Park, N.C., cat # DM-2). The adipocyte maintenance media used was AM-1 (Zen-Bio, Inc., Research Triangle Park, N.C., cat # AM-1).
First, the human subcutaneous pre-adipocyte cells were thawed in a 37° C. water bath. Next, the thawed pre-adipocyte cells were added to 9 mL of growth medium (PM-1) at 20° C. in a 15 mL polypropylene tube (Bioexpress, Corning, Corning, N.Y.). The tube was centrifuged at 280×g (˜1100 rpm) at 20° C. for 5 min. After 5 min, the supernatant was removed and the accumulated solids were re-suspended in 2 mL of PM-1 using trituration. The suspension of cells was counted under 100× magnification using a Cyto C-Chip hemacytometer (Incyto, Seoul, South Korea, cat # DHC-N01-5). In order to proceed, 15-50 cells per 1×1 mm square in hemacytometer was needed. If, the number of cells per square was not met, 6.7×10^5 (670,000) cells per T75 flask (Bioexpress, Corning, Corning, N.Y.) were added to each square and the suspension was diluted to 20 mL with PM-1. Every other day, new media was added to replace media removed due to metabolism by the cells. The cells were re-counted as described previously. Cells were grown to 80-90% confluence, which took approximately 4-5 days. 80-90% confluence is determined by visual inspection of the area of the flask occupied by the cells. When 80-90% of the flask area has been occupied, cells are at 80-90% confluence. Cell colonies were then split 1:6 by harvesting from a single flask and equally dividing the harvested cells into six flasks. Colonies were not allowed to exceed 3 passages and were not grown to complete confluence. The pre-adipocytes were grown until they contact with other cells in the flask to aid differentiation into white or brown adipocytes.
After the pre-adipocytes were sufficiently grown to 90% confluence, the cells were ready for differentiation and treatment with an activating compound. Cells were washed with 3 mL of PBS and detached using 3 mL of Trypsin EDTA. The cells were incubated at 37° C. for 5 minutes. Next, the cells were centrifuged at 280×g at 20° C. for 5 minutes. The supernatant was discarded and the resulting pellet was re-suspended in 10 mL of PM-1 using trituration. Cells were counted at 100× magnification and the cells were diluted to 86,667 cells/mL (˜13,000 cells/150 μL) by adding the necessary amount of PM-1 to achieve the desired concentration. Upon addition of PM-1, samples were swirled by hand to evenly disperse the cells prior to plating.
Once confluence is reached, 150 μL of differentiation media (DM-2) was added (DAY 0). Samples were incubated at 37° C. for 6 days. On DAY 6, 90 μL of media was removed from each sample via aspiration, without touching the bottom of the well. Next, 140 μL of adipocyte maintenance medium (AM-1) was added. The AM-1 ran down the side of well. On DAY 6, activating compounds were added (2 μL of 10 mM activating compound) to give a final concentration of 100 μM of activating compounds. […]

In test [3] the test system is adipocytes. In words: Real Time PCR analysis of adipocytes, in vitro. It is filed as cell-based, human. The method, then:
For Real Time PCR analysis of adipocytes, cells from cultures grown in 24 well plates were collected. RNA was isolated using RNeasy Kit (Cat 74104, Qiagen, Germantown, Md.) using manufacturer's protocol. RNA was quantitated using the Nanodrop 1000 (Thermofisher, Waltham, Mass.). cDNA formation was carried out using PowerUp SYBR™ Green Master Mix and real time PCR carried out on QuantStudio 6 machine (ThermoFisher, Waltham, Mass.) per manufacturer protocol. ΔΔCT analysis was done using the Expression Suite software (ThermoFisher) purchased with the instrument.
TABLE 2 used Real Time PCR to determine which proteins were expressed in adipocytes upon treatment with activating compounds. […] Real Time PCR values were relative to a control sample that was not treated with any activating compounds. […] In WS-5 and Menthol, no Real Time PCR value was over 2.0, which indicated only slight changes in mRNA expression.

[4] abbreviates: Real Time PCR, relative to untreated control = 1.

Each structure is given as a SMILES string. pIC50: −log10 of the molar value.

With `CC(C)[C@@H]1CC[C@@H](C)C[C@H]1C(=O)OC[C@@H](NC(=O)[C@H](C)N)c1ccccc1` [Formula V], the pIC50 in test [1] was 6.47; in test [2] (Homo sapiens) it was 4.10.
For `CC(C)[C@@H]1CC[C@@H](C)C[C@H]1C(=O)NC[C@@H](NC(=O)[C@@H](C)N)c1ccccc1` [Formula IV], in test [3] (setting [4]), the “Relative Expression of mRNA in Adipocytes: 18S” value is listed as 0.95, the “Relative Expression of mRNA in Adipocytes: ACADM” value stood at 1.4, the “Relative Expression of mRNA in Adipocytes: CPT1A” value came to 1.7 and the “Relative Expression of mRNA in Adipocytes: FASN” value was determined as 1.35. For the same compound, in test [3] (setting [4]), the “Relative Expression of mRNA in Adipocytes: GAPDH” value is on record as 1, the “Relative Expression of mRNA in Adipocytes: PPARGC1A” value is recorded as 1.1, the “Relative Expression of mRNA in Adipocytes: PRDM16” value worked out at 0.7 and the “Relative Expression of mRNA in Adipocytes: UCP-1” value was determined as 1.8. For the same compound, the “Real Time PCR value (any of the proteins of TABLE 2)” value in test [3] (upper bound over all proteins, relative to untreated control) is at most 2. Moreover, in test [2] (Homo sapiens), the pIC50 was 3.10.
On to `CC(C)[C@@H]1CC[C@@H](C)C[C@H]1C(=O)OC[C@@H](NC(=O)[C@@H](C)N)c1ccccc1` [Formula VI], for which the pIC50 in test [1] is 8.10; in test [2] (Homo sapiens) it was 4.40.
As to `CC(C)[C@@H]1CC[C@@H](C)C[C@H]1C(=O)NCC(NC(=O)[C@H](C)N)c1ccccc1` (stereo partly drawn) [Comparative Example 2], the pIC50 in test [1] was 7.92 to 8.00; in test [2], 3.05; in test [2] (Homo sapiens) it was 3.10.
Compound `CC(C)[C@@H]1CC[C@@H](C)C[C@H]1C(=O)NCC(NC(=O)[C@@H](C)N)c1ccccc1` (stereo partly drawn) [Comparative Example 1] had a negative logarithm of the IC50 (pIC50) in test [2] (Homo sapiens) of 3.10.
